Measurements: patent EP4079295A1, “COMPOSITION HAVING IMPROVED SOLUBILITY AND BIOAVAILABILITY OF OLAPARIB” (Samyang Holdings Corporation, priority 2019, dated 2021)
≈ marks a conversion by molar mass, not a printed value.

Columns and labels:
[1] = Test Example 1: drug solubility, simple mixture versus solid dispersion; format: physicochemical; details: thermodynamic from solid, 20 ml, amount corresponding to 400 mg of Olaparib, 37°C, 100 rpm
Experimental: To 20 ml of distilled water and pH 1.2 buffer, each of the solid dispersions of Example 1 and 4 and the simple mixtures of Comparative Examples 2 and 3 corresponding to 400 mg of Olaparib was added, and stirred in an incubator at 37°C with 100 rpm for 1 hour. The test solution was filtered with RC syringe filter (0.2 µm) and 1 mL of the filtered solution was taken and diluted with 2 mL of the following diluent solution, and then the amount was measured according to Olaparib amount analysis method.
• 1) Diluent solution preparation Diluent solution - water (DW): acetonitrile (CAN)=1:1 • 2) Operation • Detector: UV absorption spectrometer 254 nm • Column: Nova-Pak C18 Column, 60Å, 4 µm, 3.9 mm × 150 mm • Flow rate: 1.2 ml/min • Injection amount: 5 µl • Column temperature: 35°C • Run time: 16 min • Mobile phase [Table 4]

[2] = cited from earlier work

## O=C(c1cc(Cc2n[nH]c(=O)c3ccccc23)ccc1F)N1CCN(C(=O)C2CC2)CC1 [Olaparib]
[1]; simulated gastric fluid, pH 1.2 buffer
  solubility at 1 h: 0.1 mg/mL (≈ 230 µM)
[1]; water (distilled water)
  solubility at 1 h: 0.1 mg/mL (≈ 230 µM)
[2]
  water solubility: 0.1 to 0.13 mg/mL
[2]; weak acidic
  pKa: 12.07
